Earlier results, collected in patent publication US20070281983A1, “Creatine analog prodrugs, compositions and uses thereof” (XenoPort, Inc., priority 2006, published 2007).
Like-named read-outs stand apart in the source and are kept apart here.

Assays:
[1] = animals, diet containing up to 1% cyclocreatine
[2] = healthy volunteers, oral creatine administration
[3] = not given; remark: listed apart in the source

In the case of `NC1=NCCN1CC(=O)O` [cyclocreatine], the adverse effects [1] is listed as “do not exhibit adverse effects”.

For `CN(CC(=O)O)C(=N)N.O` [creatine monohydrate], the adverse side effects (athletes and body builders, 2-3 gm/day) is listed as “without adverse side effects”.

In the case of `CN(CC(=O)O)C(=N)NP(=O)(O)O` [creatine phosphate], the adverse side effects (patients with cardiac diseases, intravenous injection up to 8 gm/day) is given as “without adverse side effects”.

In the case of `CN(CC(=O)O)C(=N)N` [creatine, Creatine], the “increase in cerebral creatine phosphate” value [2] is listed as “about 10%”, the “overall increase in creatine phosphate levels” value ([3]; creatine supplementation, typically takes weeks) is listed as less than 50% and the “duration of increases in tissue creatine phosphate levels” value ([3]; following oral creatine supplementation) is listed as greater than 14 days.
